Common to all, as to assay type: functional
In experiment [1] the test system is Tetranychus urticae. Description: Insecticidal activity against abamectin-resistant female Tetranychus urticae ART-53 (two-spotted spider mite) in kidney bean assessed as mortality in 3 cm disks measured after 24 hr exposure by vapour-phase mortality bioassay.
Experiment [2] has as its system Tetranychus urticae. The experiment is described as follows: Insecticidal activity against pyridaben-resistant female Tetranychus urticae PRT-53 (two-spotted spider mite) in kidney bean assessed as mortality in 3 cm disks measured after 24 hr exposure by vapour-phase mortality bioassay.
In experiment [3] the test system is Tetranychus urticae. Description: Insecticidal activity against chlorfenapyr-resistant female Tetranychus urticae CRT-53 (two-spotted spider mite) in kidney bean assessed as mortality in 3 cm disks measured after 24 hr exposure by vapour-phase mortality bioassay.
For experiment [4], the system named is Tetranychus urticae. Description: Insecticidal activity against acaricide-susceptible female Tetranychus urticae KST (two-spotted spider mite) in kidney bean assessed as mortality in 3 cm disks measured after 24 hr exposure by vapour-phase mortality bioassay.
For experiment [5], the system named is Tetranychus urticae. The experiment is described as follows: Insecticidal activity against fenpropathrin-resistant female Tetranychus urticae FRT-53 (two-spotted spider mite) in kidney bean assessed as mortality in 3 cm disks measured after 24 hr exposure by vapour-phase mortality bioassay.

Here are results for 22 molecules from ChEMBL document CHEMBL3046484, “Fumigant toxicity of lemon eucalyptus oil constituents to acaricide-susceptible and acaricide-resistant Tetranychus urticae” (2011).

As for `CC1=CC=C(C(C)C)CC1`, the LC50 with Tetranychus urticae [1] is 277.5 microg/cm3; in the experiment with Tetranychus urticae [2] it was 253.2 microg/cm3; in the experiment with Tetranychus urticae [3] it was 293.9 microg/cm3; with Tetranychus urticae [4] it was 260 microg/cm3; with Tetranychus urticae [5], 263.3 microg/cm3.

In the case of `CC1=CC[C@@](O)(C(C)C)CC1`, the LC50 was found to be 38.7 microg/cm3 with Tetranychus urticae [1]; 43.7 microg/cm3 in the experiment with Tetranychus urticae [2]; 36.7 microg/cm3 in the experiment on Tetranychus urticae [3]; 36.9 microg/cm3 in the experiment on Tetranychus urticae [4]; 40.8 microg/cm3 in the experiment on Tetranychus urticae [5].

For the molecule `CC1=CC[C@H](C(C)C)C=C1`, the LC50 in the experiment with Tetranychus urticae [1] is recorded as 354.7 microg/cm3; in the experiment with Tetranychus urticae [2] it was 340.7 microg/cm3; in the experiment on Tetranychus urticae [3] it was 380.1 microg/cm3; in the experiment with Tetranychus urticae [4], 299.7 microg/cm3; in the experiment with Tetranychus urticae [5], 360.6 microg/cm3.

As to `C=C1CC[C@@H]2[C@@H]([C@@H]3[C@H](C)CC[C@@H]13)C2(C)C` [(+)-AROMADENDRENE], the LC50 with Tetranychus urticae [4] was greater than 500 microg/cm3.

For the molecule `C=C1CC[C@H]2O[C@]2(C)CC[C@@H]2[C@@H]1CC2(C)C` [(-)-CARYOPHYLLENE OXIDE], in the experiment with Tetranychus urticae [4], the LC50 is given as greater than 500 microg/cm3.

With `C=C[C@]1(C)CC[C@@H](C(C)(C)O)O1` [(E)-LINALOOL OXIDE], in the experiment on Tetranychus urticae [4], the LC50 is reported as greater than 500 microg/cm3.

`C=C1CC/C=C(\C)CC[C@@H]2[C@@H]1CC2(C)C` [BETA-CARYOPHYLLENE]: the LC50 in the experiment with Tetranychus urticae [1] turned out to be 53.4 microg/cm3; in the experiment on Tetranychus urticae [2], 44.7 microg/cm3; with Tetranychus urticae [3], 49.1 microg/cm3; with Tetranychus urticae [4], 47.6 microg/cm3; in the experiment with Tetranychus urticae [5], 47.7 microg/cm3.

Consider `CC1(C)C2CCC1(C)C(O)C2` (centres undefined) [BORNEOL], for which the LC50 in the experiment with Tetranychus urticae [4] is listed as greater than 500 microg/cm3.

Consider `CC(C)=CCC[C@@H](C)CC=O` [CITRONELLAL], for which the LC50 with Tetranychus urticae [1] is recorded as 34.9 microg/cm3; in the experiment on Tetranychus urticae [2], 34.9 microg/cm3; in the experiment on Tetranychus urticae [3], 34.8 microg/cm3; in the experiment with Tetranychus urticae [4] it was 33.9 microg/cm3; in the experiment with Tetranychus urticae [5], 34 microg/cm3.

For the molecule `CC(C)=CCCC(C)CCO` (centres undefined) [CITRONELLOL], the LC50 with Tetranychus urticae [1] was 26 microg/cm3; in the experiment with Tetranychus urticae [2], 25.9 microg/cm3; in the experiment on Tetranychus urticae [3] it was 26.1 microg/cm3; in the experiment with Tetranychus urticae [4], 21.7 microg/cm3; in the experiment on Tetranychus urticae [5], 21.4 microg/cm3.

For `CC(=O)OCCC(C)CCC=C(C)C` (centres undefined) [CITRONELLYL ACETATE], the LC50 in the experiment on Tetranychus urticae [1] turned out to be 12.8 microg/cm3; in the experiment on Tetranychus urticae [2] it was 17.4 microg/cm3; in the experiment on Tetranychus urticae [3], 16.7 microg/cm3; in the experiment on Tetranychus urticae [4], 16.8 microg/cm3; with Tetranychus urticae [5], 16.5 microg/cm3.

Turning to `C=C(C)[C@H]1CC=C(C)CC1` [D-LIMONENE], the LC50 with Tetranychus urticae [1] is listed as 277.6 microg/cm3; in the experiment on Tetranychus urticae [2], 288.5 microg/cm3; in the experiment on Tetranychus urticae [3] it was 333.3 microg/cm3; in the experiment on Tetranychus urticae [4], 246.7 microg/cm3; in the experiment on Tetranychus urticae [5] it was 284.3 microg/cm3.

As for `CC12CCC(CC1)C(C)(C)O2` [EUCALYPTOL], the LC50 turned out to be 256.3 microg/cm3 in the experiment with Tetranychus urticae [1]; 263.7 microg/cm3 in the experiment on Tetranychus urticae [2]; 298.4 microg/cm3 in the experiment with Tetranychus urticae [3]; 275 microg/cm3 with Tetranychus urticae [4]; 249 microg/cm3 in the experiment with Tetranychus urticae [5].

For `C=CCc1ccc(O)c(OC)c1` [EUGENOL], the LC50 stood at 27.8 microg/cm3 in the experiment on Tetranychus urticae [1]; 31.7 microg/cm3 in the experiment on Tetranychus urticae [2]; 25.9 microg/cm3 in the experiment with Tetranychus urticae [3]; 24.6 microg/cm3 in the experiment with Tetranychus urticae [4]; 28.6 microg/cm3 in the experiment on Tetranychus urticae [5].

Turning to `CC(C)=CCC/C(C)=C/CO` [GERANIOL], the LC50 in the experiment with Tetranychus urticae [1] is on record as 33.3 microg/cm3; with Tetranychus urticae [2], 33.2 microg/cm3; with Tetranychus urticae [3], 32 microg/cm3; with Tetranychus urticae [4] it was 32.1 microg/cm3; in the experiment with Tetranychus urticae [5] it was 26.8 microg/cm3.

As to `CC(=O)OC/C=C(\C)CCC=C(C)C` [GERANYL ACETATE], the LC50 was determined as 24 microg/cm3 in the experiment on Tetranychus urticae [1]; 24.5 microg/cm3 in the experiment on Tetranychus urticae [2]; 25.3 microg/cm3 with Tetranychus urticae [3]; 24.5 microg/cm3 in the experiment with Tetranychus urticae [4]; 26.7 microg/cm3 in the experiment on Tetranychus urticae [5].

In the case of `C=C(C)[C@@H]1CC[C@@H](C)C[C@H]1O` [ISOPULEGOL], the LC50 in the experiment on Tetranychus urticae [1] turned out to be 29 microg/cm3; in the experiment on Tetranychus urticae [2], 27.7 microg/cm3; in the experiment with Tetranychus urticae [3], 30.7 microg/cm3; in the experiment with Tetranychus urticae [4], 30.3 microg/cm3; in the experiment on Tetranychus urticae [5] it was 30.1 microg/cm3.

As to `C=CC(C)(O)CCC=C(C)C` (centres undefined) [LINALOOL], the LC50 was 62.4 microg/cm3 with Tetranychus urticae [1]; 55 microg/cm3 in the experiment with Tetranychus urticae [2]; 58.9 microg/cm3 in the experiment with Tetranychus urticae [3]; 54.6 microg/cm3 in the experiment with Tetranychus urticae [4]; 57.3 microg/cm3 in the experiment with Tetranychus urticae [5].

On to `CC1CCC(C(C)C)C(O)C1` (centres undefined) [MENTHOL], for which the LC50 was 13.7 microg/cm3 in the experiment with Tetranychus urticae [1]; 12.9 microg/cm3 in the experiment with Tetranychus urticae [2]; 13 microg/cm3 in the experiment on Tetranychus urticae [3]; 12.9 microg/cm3 with Tetranychus urticae [4]; 12.8 microg/cm3 in the experiment with Tetranychus urticae [5].

On to `C=CC(=C)CCC=C(C)C` [MYRCENE], for which the LC50 is reported as 384.2 microg/cm3 in the experiment on Tetranychus urticae [1]; 377.4 microg/cm3 with Tetranychus urticae [2]; 370.6 microg/cm3 with Tetranychus urticae [3]; 349.8 microg/cm3 in the experiment on Tetranychus urticae [4]; 369.3 microg/cm3 in the experiment with Tetranychus urticae [5].

For the molecule `C=C/C(C)=C/CC=C(C)C` [OCIMENE], the LC50 in the experiment on Tetranychus urticae [1] stood at 281.3 microg/cm3; with Tetranychus urticae [2], 260.2 microg/cm3; in the experiment on Tetranychus urticae [3], 277.2 microg/cm3; in the experiment on Tetranychus urticae [4], 255 microg/cm3; in the experiment with Tetranychus urticae [5], 289.6 microg/cm3.

Consider `Cc1ccc(C(C)C)cc1` [P-CYMENE], for which the LC50 in the experiment with Tetranychus urticae [1] is on record as 265.2 microg/cm3; in the experiment on Tetranychus urticae [2], 243.3 microg/cm3; in the experiment on Tetranychus urticae [3], 213.5 microg/cm3; in the experiment with Tetranychus urticae [4] it was 231.4 microg/cm3; in the experiment on Tetranychus urticae [5], 238.9 microg/cm3.
